Measured values as given in US9957298B2, “Peptides as oxytocin agonists” (Hoffmann-La Roche Inc., priority 2014, dated 2018).
Starred links: 1 amine or outer side, 2 acyl side, 3 side chain; linkers in the order of their positions; H or OH if unused. Positions of bridges follow the written chain, without caps; N, C: chain ends. Non-standard residues stand in square brackets, D forms with d. Residues, ends and D or L forms follow the SMILES beside them. X1 = N[C@H](CC(=O)[*:1])C(=O)[*:2]; d(αMeL) = CC(C)C[C@@](C)(N)C(=O)O; Cha = N[C@@H](CC1CCCCC1)C(=O)O; αMeL = CC(C)C[C@](C)(N)C(=O)O; Chg = N[C@H](C(=O)O)C1CCCCC1; Suc = O=C(CCC(=O)[*:2])[*:1]; NcPrGly = O=C(O)CNC1CC1; Dap = NC[C@H](N)C(=O)O; Aib = CC(C)(N)C(=O)O; Sar = CNCC(=O)O

Target: T1, human Oxytocin (OTR) receptor (Homo sapiens, UniProt P30559)
T1 construct: expressed in transfected cells
T1 sequence (P30559 1-389): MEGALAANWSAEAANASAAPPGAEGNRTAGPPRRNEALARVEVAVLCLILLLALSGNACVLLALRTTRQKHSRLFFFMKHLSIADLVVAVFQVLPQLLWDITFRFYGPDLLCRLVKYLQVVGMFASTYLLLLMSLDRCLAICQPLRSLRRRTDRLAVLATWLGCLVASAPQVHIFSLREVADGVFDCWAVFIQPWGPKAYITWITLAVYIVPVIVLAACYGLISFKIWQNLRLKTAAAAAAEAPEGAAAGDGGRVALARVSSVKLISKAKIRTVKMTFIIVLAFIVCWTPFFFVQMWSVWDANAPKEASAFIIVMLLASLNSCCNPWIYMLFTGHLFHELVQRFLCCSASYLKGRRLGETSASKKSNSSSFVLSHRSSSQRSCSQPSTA
Experiment: Calcium flux assay (FLIPR), agonist mode, CHO cells expressing human oxytocin receptor
Assay type: cell-based
Settings: for EC50: CHO cells, human OTR, calcium flux FLIPR, read-out: hOT EC50; for hOT efficacy (%) / Emax: maximum response normalized to endogenous full agonist = 100%; for Emax: CHO, read-out: hOT efficacy (%)
Description: Chines Hamster Ovary (CHO) cells were transfected with expression plasmids encoding either the human V1a, the human Oxytocin (OTR) or the human V2 receptor, the later in combination with the chimeric Gqs5 G protein to redirect the signal to Calcium flux. Stable cells were cloned by limiting dilution to yield monoclonal cell lines expressing either human V1a, human V2+Gqs5 or human OTR receptors and selected based on functional responses detected on a fluorometric imaging plate reader (FLIPR) detecting Calcium flux in the cell after receptor activation. The stable cell lines were grown in F-12 K Nutrient Mixture (Kaighns Modification), containing 10% foetal bovine serum (FBS), 1% penicillin-streptomycin, 1% L-[…], 200 ug/ml Geneticin at 37° C. in a 10% CO2 incubator at 95% humidity.
On the afternoon before the assay, cells were plated at a density of 50,000 cells/well into black 96 well plates with clear bottoms to allow cell inspection and fluorescence measurements from the bottom of each well. The density of cells was sufficient to yield a confluent monolayer the next day. Hanks balanced salt solution, without phenol red, containing 20 mM HEPES (pH 7.3) and 2.5 mM probenecid (assay buffer) was prepared fresh for each experiment. Compound dilutions were made using a Beckman Biomek 2000 laboratory automation workstation, in assay buffer containing 1% DMSO. The dye-loading buffer consisted of a final concentration of 2 μM Fluo-4-AM (dissolved in DMSO and pluronic acid) in assay buffer. The existing culture media was removed from the wells and 100 μl of the dye-loading buffer was added to each well and incubated for approximately 60 min at 37° C. in a 5% CO2 incubator at 95% humidity. Once dye-loaded, the cells were washed thoroughly on an Embla cell washer with the assay buffer to remove any unincorporated dye. Exactly 100 μl assay buffer was left in each well.
Each 96 well plate containing dye-loaded cells was placed into the FLIPR machine and the laser intensity set to a suitable level to detect low basal fluorescence. To test compounds as agonists, 25 μl diluted compound was added to the plate 10 seconds into the fluorescent measurements and fluorescent response was recorded for 5 minutes. The fluorescence data was normalized to the endogenous full agonist dose-response set at 100% for the maximum response and 0% for the minimum. Each agonist concentration-response curve was constructed using a four parameter logistic equation with Microsoft Excel XLFit as follows: Y=Minimum+((Maximum−Minimum)/(1+10^(LogEC50-X)nH)), where y is the % normalized fluorescence, minimum is the minimum y, maximum is the maximum y, logEC50 is the log10 concentration which produces 50% of the maximum induced fluorescence, x is the log10 of the concentration of the agonist compound and H is the slope of the curve (the Hill Coefficient). The maximum value gives the efficacy of the agonist test compound in percentage. The concentration of agonist that produced a half-maximal response is represented by the EC50 value, the logarithm of which yielded the pEC50 value.

| SMILES | EC50 | hOT efficacy (%) | Emax |
| --- | --- | --- | --- |
| CC[C@H](C)[C@@H]1NC(=O)[C@H](Cc2ccc(O)cc2)NC(=O)CCC(=O)NC[C@@H](C(=O)N(C)CC(=O)N[C@@H](CO)C(=O)NCC(N)=O)NC(=O)[C@H](CC(N)=O)NC(=O)[C@H](CCC(N)=O)NC1=O [Example 30] (YIQN[Dap][Sar]SG-NH2; linker N-5 via Suc) | 2 nM | 109% |  |
| CC[C@H](C)[C@@H]1NC(=O)[C@H](Cc2ccc(O)cc2)NC(=O)CCC(=O)NC[C@@H](C(=O)N2CCC[C@H]2C(=O)N[C@@H](CCC(N)=O)C(=O)NCC(N)=O)NC(=O)[C@H](CC(N)=O)NC(=O)[C@H](CCC(N)=O)NC1=O [Example 13] (YIQN[Dap]PQG-NH2; linker N-5 via Suc) | 8 nM | 128% |  |
| CC[C@H](C)[C@@H]1NC(=O)[C@H](Cc2ccc(O)cc2)NC(=O)CCC(=O)NC[C@@H](C(=O)N2CCC[C@H]2C(=O)N[C@H](C(=O)NCC(N)=O)[C@@H](C)O)NC(=O)[C@H](CC(N)=O)NC(=O)[C@H](CCC(N)=O)NC1=O [Example 10] (YIQN[Dap]PTG-NH2; linker N-5 via Suc) | 1 nM | 130% |  |
| CC[C@@H](C)[C@@H](NC(=O)CN(C(=O)[C@@H]1CNC(=O)CCC(=O)N[C@@H](Cc2ccc(O)cc2)C(=O)N[C@@H]([C@@H](C)CC)C(=O)N[C@@H](CCC(N)=O)C(=O)N[C@@H](CC(N)=O)C(=O)N1)C1CC1)C(=O)NCC(N)=O [Example 42] (YIQN[Dap][NcPrGly][dI]G-NH2; linker N-5 via Suc) | 0.37 nM |  | 115% |
| CC[C@H](C)[C@@H]1NC(=O)[C@H](Cc2ccc(O)cc2)NC(=O)CCC(=O)NC[C@@H](C(=O)N(C)CC(=O)N[C@@](C)(CC(C)C)C(=O)NCC(N)=O)NC(=O)[C@H](CC(N)=O)NC(=O)[C@H](CCC(N)=O)NC1=O [Example 23] (YIQN[Dap][Sar][αMeL]G-NH2; linker N-5 via Suc) | 3 nM | 123% |  |
| CC[C@H](C)[C@@H]1NC(=O)[C@H](Cc2ccc(O)cc2)NC(=O)CCC(=O)NC[C@@H](C(=O)N(CC(=O)N[C@@H](CO)C(=O)NCC(N)=O)C2CC2)NC(=O)[C@H](CC(N)=O)NC(=O)[C@H](CCC(N)=O)NC1=O [Example 45] (YIQN[Dap][NcPrGly]SG-NH2; linker N-5 via Suc) | 0.8 nM |  | 117% |
| CC[C@H](C)[C@@H]1NC(=O)[C@H](Cc2ccc(O)cc2)NC(=O)CCC(=O)NC[C@@H](C(=O)N2CCC[C@H]2C(=O)N[C@H](C(=O)NCC(N)=O)C(C)C)NC(=O)[C@H](CC(N)=O)NC(=O)[C@H](CCC(N)=O)NC1=O [Example 12] (YIQN[Dap]PVG-NH2; linker N-5 via Suc) | 1.6 nM |  | 130% |
| CC[C@H](C)[C@@H]1NC(=O)[C@H](Cc2ccc(O)cc2)NC(=O)CCC(=O)NC[C@@H](C(=O)N2CCC[C@H]2C(=O)N[C@@H](Cc2cnc[nH]2)C(=O)NCC(N)=O)NC(=O)[C@H](CC(N)=O)NC(=O)[C@H](CCC(N)=O)NC1=O [Example 15] (YIQN[Dap]PHG-NH2; linker N-5 via Suc) | 8 nM | 123% |  |
| CC[C@H](C)[C@@H]1NC(=O)[C@H](Cc2ccc(O)cc2)NC(=O)CCC(=O)NC[C@@H](C(=O)N2CCC[C@H]2C(=O)N[C@@H](Cc2c[nH]c3ccccc23)C(=O)NCC(N)=O)NC(=O)[C@H](CC(N)=O)NC(=O)[C@H](CCC(N)=O)NC1=O [Example 16] (YIQN[Dap]PWG-NH2; linker N-5 via Suc) | 4 nM | 100% |  |
| CC[C@H](C)[C@@H]1NC(=O)[C@H](Cc2ccc(O)cc2)NC(=O)CCC(=O)NC[C@@H](C(=O)N(CC(=O)N[C@](C)(CC(C)C)C(=O)NCC(N)=O)C2CC2)NC(=O)[C@H](CC(N)=O)NC(=O)[C@H](CCC(N)=O)NC1=O [Example 39] (YIQN[Dap][NcPrGly][d(αMeL)]G-NH2; linker N-5 via Suc) | 1.3 nM |  | 108% |
| CC[C@H](C)[C@@H]1NC(=O)[C@H](Cc2ccc(O)cc2)NC(=O)CCC(=O)NC[C@@H](C(=O)N(C)CC(=O)N[C@@H](Cc2cnc[nH]2)C(=O)NCC(N)=O)NC(=O)[C@H](CC(N)=O)NC(=O)[C@H](CCC(N)=O)NC1=O [Example 35] (YIQN[Dap][Sar]HG-NH2; linker N-5 via Suc) | 4 nM | 111% |  |
| CC[C@H](C)[C@@H]1NC(=O)[C@H](Cc2ccc(O)cc2)NC(=O)CCC(=O)NC[C@@H](C(=O)N(CC(=O)NC(C)(C)C(=O)NCC(N)=O)C2CC2)NC(=O)[C@H](CC(N)=O)NC(=O)[C@H](CCC(N)=O)NC1=O [Example 41] (YIQN[Dap][NcPrGly][Aib]G-NH2; linker N-5 via Suc) | 2.5 nM |  | 108% |
| CC[C@H](C)[C@@H]1NC(=O)[C@H](Cc2ccc(O)cc2)NC(=O)CCC(=O)NC[C@@H](C(=O)N2CCC[C@H]2C(=O)N[C@@H](Cc2ccccc2)C(=O)NCC(N)=O)NC(=O)[C@H](CC(N)=O)NC(=O)[C@H](CCC(N)=O)NC1=O [Example 14] (YIQN[Dap]PFG-NH2; linker N-5 via Suc) | 6 nM | 122% |  |
| CC[C@H](C)[C@@H]1NC(=O)[C@H](Cc2ccc(O)cc2)NC(=O)CCC(=O)NC[C@@H](C(=O)N2CCC[C@H]2C(=O)N[C@@H](CC2CCCCC2)C(=O)NCC(N)=O)NC(=O)[C@H](CC(N)=O)NC(=O)[C@H](CCC(N)=O)NC1=O [Example 18] (YIQN[Dap]P[Cha]G-NH2; linker N-5 via Suc) | 2 nM | 130% |  |
| CC[C@H](C)[C@@H]1NC(=O)[C@H](Cc2ccc(O)cc2)NC(=O)CCC(=O)NC[C@@H](C(=O)N(CC(=O)N[C@H](C(=O)NCC(N)=O)C2CCCCC2)C2CC2)NC(=O)[C@H](CC(N)=O)NC(=O)[C@H](CCC(N)=O)NC1=O [Example 43] (YIQN[Dap][NcPrGly][Chg]G-NH2; linker N-5 via Suc) | 0.26 nM |  | 110% |
| CC[C@H](C)[C@@H]1NC(=O)[C@H](Cc2ccc(O)cc2)NC(=O)CCC(=O)NC[C@@H](C(=O)N2CCC[C@H]2C(=O)N[C@H](C(=O)NCC(N)=O)[C@@H](C)CC)NC(=O)[C@H](CC(N)=O)NC(=O)[C@H](CCC(N)=O)NC1=O [Example 9] (YIQN[Dap]PIG-NH2; linker N-5 via Suc) | 1 nM | 132% |  |
| CC[C@H](C)[C@@H]1NC(=O)[C@H](Cc2ccc(O)cc2)NC(=O)CCC(=O)NC[C@@H](C(=O)N(C)CC(=O)N[C@@H](Cc2ccccc2)C(=O)NCC(N)=O)NC(=O)[C@H](CC(N)=O)NC(=O)[C@H](CCC(N)=O)NC1=O [Example 33] (YIQN[Dap][Sar]FG-NH2; linker N-5 via Suc) | 3 nM | 111% |  |
| CC[C@H](C)[C@@H]1NC(=O)[C@H](Cc2ccc(O)cc2)NC(=O)CCC(=O)NC[C@@H](C(=O)N(CC(=O)N[C@@H](C(=O)NCC(N)=O)C(C)C)C2CC2)NC(=O)[C@H](CC(N)=O)NC(=O)[C@H](CCC(N)=O)NC1=O [Example 40] (YIQN[Dap][NcPrGly][dV]G-NH2; linker N-5 via Suc) | 0.6 nM |  | 106% |
| CC[C@H](C)[C@@H]1NC(=O)[C@H](Cc2ccc(O)cc2)NC(=O)C[C@@H](N)C(=O)NC[C@@H](C(=O)N(C)CC(=O)N[C@@H](CC(C)C)C(=O)NCC(N)=O)NC(=O)[C@H](CC(N)=O)NC(=O)[C@H](CCC(N)=O)NC1=O [Example 4] (YIQN[Dap][Sar]LG-NH2; linker N-5 via X1) | 5 nM | 126% |  |
